Assay results published in patent US20230331673A1, “COMPOSITION OF COMPOUNDS THAT MODULATE CELL METABOLISM AND METHODS OF USE” (CRESCENTA BIOSCIENCES, priority 2020, published 2023).

What was measured:
[1] = test system: differentiated 3T3-L1 mouse adipocyte cells; assay: Adipocyte glucose consumption in differentiated 3T3-L1 mouse adipocyte cells (loss of glucose from medium, colorimetric); format: cell-based; conditions: compound 10 μM, 22 to 24 hours, differentiated 3T3-L1 adipocytes, compound/DMSO, read-out: Glucose consumption (fold change) Mean
Procedure, shortened: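 3T3-L1 cells were differentiated with rosiglitazone, dexamethasone, IBMX and insulin, then used on day 11 or 12. Medium glucose was measured colorimetrically, and consumption was given as mean fold change versus DMSO ± SD.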

[2] = biological target: T1, His6 tagged human recombinant FABP4 (Homo sapiens, UniProt P15090); assay: FABP4 Tb TR-FRET assay: displacement of BODIPY FL C12 fatty acid from His6-FABP4; conditions: triplicates, inhibition of BODIPY FL C12 binding
T1 construct: purchased Cayman Chemicals 10009549
Text: Activity of compounds with FABP4 was profiled using a Terbium (Tb) based time resolved fluorescence energy transfer (TR-FRET) assay. The assay measures the compound mediated displacement of the fluorescent fatty acid BODIPY FL C12 (Thermo Fisher; catalog number D3822) from His6 tagged human recombinant FABP4 (His6-FABP4; Cayman Chemicals, catalog number 10009549) via recording the energy transfer from TB donor molecule on anti-His6-tag antibody to acceptor BODIPY moiety. Briefly, compounds were prepared at a concentration of 0.362 mM and 0.0362 mM, and BODIPY FL C12 was prepared at 4.2 μM, in DMSO. 1.2 μL of each compound or DMSO (vehicle control) and 1.2 μL of BODIPY FL C12 were added into the wells of a 384-well black polypropylene plate. His6-FABP4 and Tb anti-His6 antibody were prepared in the assay buffer (25 mM Tris/HCl, pH 7.4, 0.4 mg/ml γ-globulins, 0.010% NP-40, 1 mM DTT) at a concentration of 83 nM and 49.6 nM, respectively. The protein and antibody solutions were then mixed at a ratio of 34:7 (v/v) and incubated on ice for 30 minutes. The assay was initiated by adding 41 μL of the resulting protein/antibody solution into the wells containing the compounds and BODIPY FL C12. The plate was centrifuged and incubated at room temperature for 10 min. The TR-FRET signals were recorded using an EnVision Multilabel plate reader (PerkinElmer; TB excitation 320 nm, BODIPY FL C12 emission 520 nm; TB emission 615 nm). Relative fluorescence ratio (520 nm*10,000/615 nm) were used to calculate the compound mediated inhibition of BODIPY C12 FL fatty acid binding to FABP4. […] Glucose consumption and FABP4 inhibition is shown below in Table 3 below.

T1 sequence (P15090 whole entry): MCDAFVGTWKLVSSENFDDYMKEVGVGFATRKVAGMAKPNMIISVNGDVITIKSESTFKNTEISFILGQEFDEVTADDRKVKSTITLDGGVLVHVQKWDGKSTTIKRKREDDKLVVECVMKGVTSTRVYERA

Row | SMILES | fold induction at 10 µM [1] | inhibition at 1 µM ([2]; 1 μM compound) | also measured
1 | CCCCCCC1CCCc2c(n(Cc3ccc4ocnc4c3)c3c(C(=O)O)cccc23)C1 (centres unmarked) [5-[(1,3-benzoxazol-5-yl)methyl]-7-hexyl-5H,6H,7H,8H,9H,10H-cyclohepta[b]indole-4-carboxylic acid] | 0.87 | 88% | –
2 | CCCCCCC1CCCc2c(n(Cc3cc(C#N)cs3)c3c(C(=O)O)cccc23)C1 (centres unmarked) [5-[(4-cyanothiophen-2-yl)methyl]-7-hexyl-5H,6H,7H,8H,9H,10H-cyclohepta[b]indole-4-carboxylic acid] | – | 83.3% | inhibition at 10 µM ([2]; 10 μM compound): 89.4%
3 | CCCCCCC1CCCc2c(n(Cc3ccccc3C#N)c3c(C(=O)O)cccc23)C1 (centres unmarked) [5-[(2-cyanophenyl)methyl]-7-hexyl-5H,6H,7H,8H,9H,10H-cyclohepta[b]indole-4-carboxylic acid] | 0.91 | 88.5% | –
4 | CCCCCCC1CCc2c(n(Cc3cccc(C(=O)O)c3)c3c(C(=O)O)cccc23)C1 (centres unmarked) [9-[(3-carboxyphenyl)methyl]-2-hexyl-2,3,4,9-tetrahydro-1H-carbazole-8-carboxylic acid] | 1.01 | – | FABP4 inhibition (%) at 1 μM Mean ([2]; 1 μM compound): 42.40%; FABP4 inhibition (%) at 10 μM Mean ([2]; 10 μM compound): 80.24%
5 | CCCCCCC1CCCc2c(n(Cc3cccc(OC)c3)c3c(C(=O)O)cccc23)C1 (centres unmarked) [7-hexyl-5-[(3-methoxyphenyl)methyl]-5H,6H,7H,8H,9H,10H-cyclohepta[b]indole-4-carboxylic acid] | 1.13 | 93.2% | –
6 | CCCCCCC1CCCc2c(n(Cc3cccc(C(F)(F)F)n3)c3c(C(=O)O)cccc23)C1 (centres unmarked) [7-hexyl-5-{[6-(trifluoromethyl)pyridin-2-yl]methyl}-5H,6H,7H,8H,9H,10H-cyclohepta[b]indole-4-carboxylic acid] | – | 79.7% | –
7 | CCCCCCC1CCCc2c(n(Cc3ccc(F)cc3)c3c(C(=O)O)cccc23)C1 (centres unmarked) [5-[(4-fluorophenyl)methyl]-7-hexyl-5H,6H,7H,8H,9H,10H-cyclohepta[b]indole-4-carboxylic acid] | 1.17 | – | –
8 | CCCCC1CCCc2c(n(Cc3cccc(Cl)c3)c3c(C(=O)O)cccc23)C1 (centres unmarked) [7-butyl-5-[(3-chlorophenyl)methyl]-5H,6H,7H,8H,9H,10H-cyclohepta[b]indole-4-carboxylic acid] | 1.18 | – | –
9 | CCCCCCCCC1CCCc2c(n(Cc3cccc(C#N)c3)c3c(C(=O)O)cccc23)C1 (centres unmarked) [5-[(3-cyanophenyl)methyl]-7-octyl-5H,6H,7H,8H,9H,10H-cyclohepta[b]indole-4-carboxylic acid] | 1.12 | – | –
10 | CCCCC1CCc2c(n(Cc3cccc(C(N)=O)c3)c3c(C(=O)O)cccc23)C1 (centres unmarked) [2-butyl-9-[(3-carbamoylphenyl)methyl]-2,3,4,9-tetrahydro-1H-carbazole-8-carboxylic acid] | 1.1 | – | –
11 | N#Cc1cccc(Cn2c3c(c4cccc(C(=O)O)c42)CCC(CCc2ccccc2)C3)c1 (centres unmarked) [9-[(3-cyanophenyl)methyl]-2-(2-phenylethyl)-2,3,4,9-tetrahydro-1H-carbazole-8-carboxylic acid] | – | 92.7% | –
12 | CCCCCCC1CCCc2c(n(Cc3csc(C#N)c3)c3c(C(=O)O)cccc23)C1 (centres unmarked) [5-[(5-cyanothiophen-3-yl)methyl]-7-hexyl-5H,6H,7H,8H,9H,10H-cyclohepta[b]indole-4-carboxylic acid] | 1.2 | – | –
13 | CCCC1CCCc2c1c1cccc(C(=O)O)c1n2Cc1cccc(C(N)=O)c1 (centres unmarked) [9-[(3-carbamoylphenyl)methyl]-4-propyl-2,3,4,9-tetrahydro-1H-carbazole-8-carboxylic acid] | 1.04 | – | –
14 | CCCCCCC1CCc2c(n(Cc3cccc(O)c3)c3c(C(=O)O)cccc23)C1 (centres unmarked) [2-hexyl-9-[(3-hydroxyphenyl)methyl]-2,3,4,9-tetrahydro-1H-carbazole-8-carboxylic acid] | 1.11 | – | –
15 | CCCCCCC1CCCc2c(n(Cc3ccc4ncoc4c3)c3c(C(=O)O)cccc23)C1 (centres unmarked) [5-[(1,3-benzoxazol-6-yl)methyl]-7-hexyl-5H,6H,7H,8H,9H,10H-cyclohepta[b]indole-4-carboxylic acid] | 1.17 | – | –
16 | CCCOC1CCCc2c1n(Cc1cccc(C(N)=O)c1)c1c(C(=O)O)cccc21 (centres unmarked) [9-[(3-carbamoylphenyl)methyl]-1-propoxy-2,3,4,9-tetrahydro-1H-carbazole-8-carboxylic acid] | 1.03 | – | –
17 | CCC1CCc2c(c3cccc(C(=O)O)c3n2Cc2cccc(C#N)c2)C1 (centres unmarked) [9-[(3-cyanophenyl)methyl]-3-ethyl-2,3,4,9-tetrahydro-1H-carbazole-8-carboxylic acid] | 1.08 | – | –
